Assays:
Experiment in all cases: relative viability (nuclei count vs DMSO), 5 days (fraction); higher = more cells survive
4EGI-1 + OSI-027 = compound: O=C(O)C(Cc1ccccc1[N+](=O)[O-])=NNc1nc(-c2ccc(Cl)c(Cl)c2)cs1 (mixture of isomers) [4EGI-1] + COc1cccc2cc(-c3nc([C@H]4CC[C@H](C(=O)O)CC4)n4ncnc(N)c34)[nH]c12 [OSI-027] (partner 0.5 µM)
In short: (§1)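 Lung cancer cell lines, seeded in 1536-well plates, were treated the following day by pin tool with a single drug or with five library-drug doses (not always all listed) in √10 steps on top of a fixed anchor-drug dose. Cells were fixed and nuclei stained in one step after 5 days, and nuclei were counted. Relative viability is the nuclei count for treated wells divided by that for vehicle wells, reported as medians of duplicate plates.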

XMD8-85 + Navitoclax = compound: CN1CCN(CC1)C2=CC(=C(C=C2)NC3=NC=C4C(=N3)N(C5=CC=CC=C5C(=O)N4C)C)OC [XMD8-85] + CC1(C)CCC(c2ccc(Cl)cc2)=C(CN2CCN(c3ccc(C(=O)NS(=O)(=O)c4ccc(N[C@H](CCN5CCOCC5)CSc5ccccc5)c(S(=O)(=O)C(F)(F)F)c4)cc3)CC2)C1 [Navitoclax] (partner 0.5 µM)
In short: as §1

4EGI-1 + Linsitinib = compound: O=C(O)C(Cc1ccccc1[N+](=O)[O-])=NNc1nc(-c2ccc(Cl)c(Cl)c2)cs1 (mixture of isomers) [4EGI-1] + C[C@]1(O)C[C@@H](c2nc(-c3ccc4ccc(-c5ccccc5)nc4c3)c3c(N)nccn32)C1 [Linsitinib] (partner 1 µM)
In short: as §1

XMD8-85 + Lapatinib = compound: CN1CCN(CC1)C2=CC(=C(C=C2)NC3=NC=C4C(=N3)N(C5=CC=CC=C5C(=O)N4C)C)OC [XMD8-85] + CS(=O)(=O)CCNCc1ccc(-c2ccc3ncnc(Nc4ccc(OCc5cccc(F)c5)c(Cl)c4)c3c2)o1 [Lapatinib] (partner 2 µM)
In short: as §1

**Q.** For NCI-H1792, which relative viability (4EGI-1 + OSI-027; first compound 0.5 µM) is on record?
**A.** 0.886

**Q.** What about the relative viability (4EGI-1 + OSI-027; first compound 1.581 µM) of the same cell line?
**A.** 0.75

**Q.** And the relative viability (4EGI-1 + OSI-027; first compound 5 µM)?
**A.** 0.62

**Q.** And the relative viability (4EGI-1 + OSI-027; first compound 15.81 µM)?
**A.** 0.579

**Q.** What about the relative viability (4EGI-1 + OSI-027; first compound 50 µM) of the same cell line?
**A.** 0.503

**Q.** And the relative viability (XMD8-85 + Navitoclax; first compound 0.08 µM)?
**A.** 0.488

**Q.** What about the relative viability (XMD8-85 + Navitoclax; first compound 0.253 µM) of the same cell line?
**A.** 0.398

**Q.** What about the relative viability (XMD8-85 + Navitoclax; first compound 2.53 µM) of the same cell line?
**A.** 0.482

**Q.** And the relative viability (XMD8-85 + Navitoclax; first compound 8 µM)?
**A.** 0.49

**Q.** And the relative viability (4EGI-1 + Linsitinib; first compound 0.5 µM)?
**A.** 0.613

**Q.** What about the relative viability (4EGI-1 + Linsitinib; first compound 1.581 µM) of the same cell line?
**A.** 0.444

**Q.** What about the relative viability (4EGI-1 + Linsitinib; first compound 5 µM) of the same cell line?
**A.** 0.48

**Q.** And the relative viability (4EGI-1 + Linsitinib; first compound 15.81 µM)?
**A.** 0.441

**Q.** What about the relative viability (4EGI-1 + Linsitinib; first compound 50 µM) of the same cell line?
**A.** 0.472

**Q.** What about the relative viability (XMD8-85 + Lapatinib; first compound 0.08 µM) of the same cell line?
**A.** 0.893

**Q.** And the relative viability (XMD8-85 + Lapatinib; first compound 0.253 µM)?
**A.** 0.63

**Q.** What about the relative viability (XMD8-85 + Lapatinib; first compound 2.53 µM) of the same cell line?
**A.** 0.675

**Q.** And the relative viability (XMD8-85 + Lapatinib; first compound 8 µM)?
**A.** 0.879

Reference: the supplement of paper PMC10307832
